Experimental data published in patent US20260223850A1, “SUBSTITUTED PYRROLIDONE COMPOUND, PREPARATION METHOD THEREFOR, COMPOSITION AND APPLICATION THEREOF” (QINGDAO KINGAGROOT CHEMICAL COMPOUND CO., LTD., priority 2023, published 2026).

Tests used:
Echinochloa crusgalli = assay: Seedling stage sealing experiment for water-seeding; format: in vivo; details: 120 g a.i./ha, 15 days, fresh weight control rate
Source text: (§1) The activity level criteria for plant damage (i.e., growth control rate) are as follows: • Level 9: completely dead; • Level 8: growth control rate greater than or equal to 90% and less than 100%; • Level 7: growth control rate greater than or equal to 80% and less than 90%; • Level 6: growth control rate greater than or equal to 70% and less than 80%; • Level 5: growth control rate greater than or equal to 50% and less than 70%; • Level 4: growth control rate greater than or equal to 30% and less than 50%; • Level 3: growth control rate greater than or equal to 20% and less than 30%; • Level 2: growth control rate greater than or equal to 10% and less than 20%; • Level 1: growth control rate less than 10%; • Level 0: no effect.
(§2) The above growth control rates are fresh weight control rates.
(§3) Echinochloa phyllopogon, Digitaria sanguinalis, Huaidao (rice cultivar), etc. were broadcasted on the surface of nutrition bowls filled with soil and fully covered by soil. The foregoing well-prepared nutrition bowls were then placed in a cultivation box with water filled to a suitable height to keep the soil in the nutrition bowls moist. A test compound of the present invention was individually dissolved with acetone, then diluted into solution of a certain concentration using a certain amount of water, and sprayed using a spray tower. The plants were placed on a greenhouse seedbed and cultured for 15 days, and the experimental results were then collected. The compound was applied at 120, 60, 30 and 15 g a.i./ha in triplicate, and the results were averaged.

Echinochloa phyllopogon = assay: as above; format: in vivo; details: 120 g a.i./ha, 15 days, fresh weight control rate
Source text: as §1, §2, §3

[1] = spray, seedling stage sealing for water-seeding

Structure (SMILES) | Echinochloa crusgalli activity level (growth control rate) (Echinochloa crusgalli; seedling stage sealing) | Echinochloa phyllopogon activity level (growth control rate) (Echinochloa phyllopogon; seedling stage sealing) | Echinochloa crusgalli activity level (growth control rate) (Echinochloa crusgalli; [1]) | Echinochloa phyllopogon activity level (growth control rate) (Echinochloa phyllopogon; [1])
Cc1ccc([C@H]2CN(C)C(=O)[C@@H]2C(=O)Nc2cnn(C)c2C)cc1 [415′] | 9 | 9 | – | –
Cc1ccc(C2CN(C)C(=O)C2C(=O)Nc2cnn(C)c2C(F)(F)F)cc1C (stereo not shown) [Compound 488] | – | – | 9 | 9
COCc1ccc([C@H]2CN(C)C(=O)[C@@H]2C(=O)Nc2cnn(C)c2Cl)cc1 [253′] | 6 (Level 6: growth control rate greater than or equal to 70% and less than 80%) | – | – | –
CN1C[C@H](c2cccc(C(F)(F)F)c2)[C@@H](C(=O)Nc2cnn(C)c2Cl)C1=O [1′] | 9 | 6 (Level 6: growth control rate greater than or equal to 70% and less than 80%) | – | –
CN1CC(c2cc(F)cc(C(F)(F)F)c2)C(C(=O)Nc2cnn(C)c2C(F)(F)F)C1=O (stereo not shown) [Compound 508] | – | – | 9 | 9
CN1C[C@H](c2cccc(OC(F)(F)F)c2)[C@@H](C(=O)Nc2cnn(C(F)F)c2Cl)C1=O [414′] | 9 | 9 | – | –
CC(C)c1ccc([C@H]2CN(C)C(=O)[C@@H]2C(=O)Nc2cnn(C)c2Cl)cc1 [245′] | – | 5 (Level 5: growth control rate greater than or equal to 50% and less than 70%) | – | –
Cc1ccc([C@H]2CN(C)C(=O)[C@@H]2C(=O)Nc2cnn(C)c2Cl)s1 [335′] | 7 (Level 7: growth control rate greater than or equal to 80% and less than 90%) | – | – | –
CCc1c(NC(=O)[C@H]2C(=O)N(C)C[C@@H]2c2cccc(C)c2)cnn1C(F)F [466′] | – | – | 9 | 9
CN1C[C@H](c2ccc(C(F)(F)F)c(F)c2Cl)[C@@H](C(=O)Nc2cnn(C)c2Cl)C1=O [329′] | 7 (Level 7: growth control rate greater than or equal to 80% and less than 90%) | 6 (Level 6: growth control rate greater than or equal to 70% and less than 80%) | – | –
COc1cc(OC)cc(C2CN(C)C(=O)C2C(=O)Nc2cnn(C)c2Cl)c1 (stereo not shown) [Compound 302] | 6 (Level 6: growth control rate greater than or equal to 70% and less than 80%) | 5 (Level 5: growth control rate greater than or equal to 50% and less than 70%) | – | –
CN1C[C@H](c2cccc(C(F)(F)F)c2)[C@@H](C(=O)Nc2cnn(C)c2C(F)(F)F)C1=O [404′] | 9 | 9 | – | –
Cc1cc([C@H]2CN(C)C(=O)[C@@H]2C(=O)Nc2cnn(C(F)F)c2Cl)cc(C)c1C [515′] | – | – | 9 | 9
Cc1cccc([C@H]2CN(C)C(=O)[C@@H]2C(=O)Nc2cnn(C(F)F)c2C2CC2)c1 [395′] | 9 | 9 | – | –
Cc1cc(C)cc([C@H]2CN(C)C(=S)[C@@H]2C(=S)Nc2cnn(C)c2Cl)c1 [451′] | – | – | 8 (Level 8: growth control rate greater than or equal to 90% and less than 100%) | 7 (Level 7: growth control rate greater than or equal to 80% and less than 90%)
CN1C[C@H](c2cccc(Oc3ccccn3)c2)[C@@H](C(=O)Nc2cnn(C)c2Cl)C1=O [360′] | 7 (Level 7: growth control rate greater than or equal to 80% and less than 90%) | – | – | –
CSc1c(NC(=O)[C@H]2C(=O)N(C)C[C@@H]2c2cccc(C)c2)cnn1C [393′] | 9 | 9 | – | –
CSc1c(NC(=O)[C@H]2C(=O)N(C)C[C@@H]2c2cc(C)cc(C)c2)cnn1C [431′] | 9 | 9 | – | –
CSc1c(C(F)(F)F)ccc(C2CN(C)C(=O)C2C(=O)Nc2cnn(C)c2Cl)c1Cl (stereo not shown) [Compound 330] | 6 (Level 6: growth control rate greater than or equal to 70% and less than 80%) | 5 (Level 5: growth control rate greater than or equal to 50% and less than 70%) | – | –
CN1CC(c2ccc(OC(F)(F)F)cc2)C(C(=O)Nc2cnn(C)c2Cl)C1=O (stereo not shown) [Compound 254] | 5 (Level 5: growth control rate greater than or equal to 50% and less than 70%) | 5 (Level 5: growth control rate greater than or equal to 50% and less than 70%) | – | –
Cc1ccc([C@H]2CN(C)C(=O)[C@@H]2C(=O)Nc2cnn(C(F)F)c2Cl)cc1F [444′] | – | – | 9 | 9
CN1CC(c2ccc(-c3cccc(C(F)(F)F)c3)cc2)C(C(=O)Nc2cnn(C)c2Cl)C1=O (stereo not shown) [Compound 261] | 6 (Level 6: growth control rate greater than or equal to 70% and less than 80%) | 5 (Level 5: growth control rate greater than or equal to 50% and less than 70%) | – | –
Cc1cc(C)cc([C@H]2CN(C)C(=O)[C@@H]2C(=O)Nc2cnn(C)c2C#N)c1 [434′] | 9 | 9 | – | –
CN1CC(c2ccc3occc3c2)C(C(=O)Nc2cnn(C)c2Cl)C1=O (stereo not shown) [Compound 355] | 5 (Level 5: growth control rate greater than or equal to 50% and less than 70%) | – | – | –
CSc1c(NC(=O)[C@H]2C(=O)N(C)C[C@@H]2c2cccc(C(F)(F)F)c2)cnn1C [479′] | – | – | 9 | 9
CN1CC(c2cc(F)cc(F)c2F)C(C(=O)Nc2cnn(C)c2Cl)C1=O (stereo not shown) [Compound 332] | 5 (Level 5: growth control rate greater than or equal to 50% and less than 70%) | – | – | –
CO/N=C/c1cccc([C@H]2CN(C)C(=O)[C@@H]2C(=O)Nc2cnn(C)c2Cl)c1 [232′] | 6 (Level 6: growth control rate greater than or equal to 70% and less than 80%) | – | – | –
CN1C[C@H](c2cccc(C(F)(F)F)c2)[C@@H](C(=O)Nc2cnn(C)c2N)C1=O [198′] | 5 (Level 5: growth control rate greater than or equal to 50% and less than 70%) | – | – | –
Cc1ccccc1[C@H]1CN(C)C(=O)[C@@H]1C(=O)Nc1cnn(C)c1Cl [124′] | 6 (Level 6: growth control rate greater than or equal to 70% and less than 80%) | – | – | –
